The compounds below were run on SKBR3 cells (assay: SKBR3 Cell Viability Assay). Settings: 72 hours, CellTiter Glo, read-out: MCL-1 CV SKBR3 EC50.
Assay type: cell-based
Description: SKBR3 Cell Viability Assay Materials
SKBR3 Cells (ATCC HTB-30) were obtained from ATCC (Manassas, Va.) and cultured in McCoy 5A's medium (ATCC 30-2007)+10% fetal bovine serum (SH30071.03, HyClone, Pittsburgh, Pa.) plus 1× Penicillin-Streptomycin L-glutamine (Corning 30-009-C1, Corning, N.Y.)).
The cell viability assay was conducted in a 384-well tissue culture plate (Grenier 781086, Monroe, N.C.) in a total volume of 70 μL. Test compounds were prepared in 1,000×, serially diluted, and pre-spotted into 384-well tissue culture plate by Echo 555 Liquid Handler (Labcyte Inc., San Jose, Calif.). Seventy μ1 of 6,000 SKBR3 cells were dispensed into each well of the plate and incubated at 37° C. with 5% CO2 for 72 hours. At the end of incubation, 2× CellTiter Glo (CTG) reagents (1 part buffer with 2 parts substrate) (Promega, Madison, Wis.) were prepared, and the plate and the reagent were equilibrated to room temperature for 30 minutes. CTG reagent was added to each plate by Biomek FX at 20 μL/well with 5 times pipetting and mixing to induce cell lysis. Luminescence was read by Envision multimode reader (PerkinElmer). […] Percent inhibition was calculated as followed: % Inhibition=100%*(Well−Neg)/(Pos−Neg) Neg, negative control, DMSO Pos, positive control, 10 μM Puromycin

Structure (SMILES)	EC50 [nM]
CO[C@H]1/C=C/CCC[S@@](=O)(NC(=O)Cc2ncccn2)=NC(=O)c2ccc3c(c2)N(C[C@@H]2CC[C@H]21)C[C@@]1(CCCc2cc(Cl)ccc21)CO3 [Example 30]	1840
COC1CN(C(=O)N[S@@]2(=O)=NC(=O)c3ccc4c(c3)N(C[C@@H]3CC[C@H]3[C@@H](O)/C=C/C[C@H](C)C2)C[C@@]2(CCCc3cc(Cl)ccc32)CO4)C1 [Example 266]	53.8
CO[C@H]1/C=C/CCC[S@@](=O)(NC(=O)C2COC2)=NC(=O)c2ccc3c(c2)N(C[C@@H]2CC[C@H]21)C[C@@]1(CCCc2cc(Cl)ccc21)CO3 [Example 24]	891
CO[C@H]1/C=C/CCC[S@@](=O)(NC(=O)C2CCC2)=NC(=O)c2ccc3c(c2)N(C[C@@H]2CC[C@H]21)C[C@@]1(CCCc2cc(Cl)ccc21)CO3 [Example 31]	2590
CO[C@H]1/C=C/C[C@H](C)C[S@@](=O)(NC(=O)c2cn(C)nc2OCCN2CCOCC2)=NC(=O)c2ccc3c(c2)N(C[C@@H]2CC[C@H]21)C[C@@]1(CCCc2cc(Cl)ccc21)CO3 [Example 319]	19.9
CO[C@H]1/C=C/CCC[S@@](=O)(NC(=O)CCS(C)(=O)=O)=NC(=O)c2ccc3c(c2)N(C[C@@H]2CC[C@H]21)C[C@@]1(CCCc2cc(Cl)ccc21)CO3 [Example 28]	8410
COc1ccc(C(=O)N[S@@]2(=O)=NC(=O)c3ccc4c(c3)N(C[C@@H]3CC[C@H]3[C@@H](OC)/C=C/C[C@H](C)C2)C[C@@]2(CCCc3cc(Cl)ccc32)CO4)cc1 [Example 273]	81
CO[C@H]1/C=C/CCC[S@@](=O)(NC(=O)C2CC2)=NC(=O)c2ccc3c(c2)N(C[C@@H]2CC[C@H]21)C[C@@]1(CCCc2cc(Cl)ccc21)CO3 [Example 27]	2080
CO[C@H]1/C=C/C[C@H](C)C[S@@](=O)(NC(=O)N2C[C@@H](OC)[C@@H]2C)=NC(=O)c2ccc3c(c2)N(C[C@@H]2CC[C@H]21)C[C@@]1(CCCc2cc(Cl)ccc21)CO3 [Example 253]	39.2
CO[C@H]1/C=C/CCC[S@@](=O)(NC(=O)CC2CC2)=NC(=O)c2ccc3c(c2)N(C[C@@H]2CC[C@H]21)C[C@@]1(CCCc2cc(Cl)ccc21)CO3 [Example 21]	1300
CO[C@H]1/C=C/C[C@H](C)C[S@@](=O)(NC(=O)c2cc3n(c2)CCc2c-3cnn2C)=NC(=O)c2ccc3c(c2)N(C[C@@H]2CC[C@H]21)C[C@@]1(CCCc2cc(Cl)ccc21)CO3 [Example 208]	45
CO[C@H]1/C=C/CCC[S@@](=O)(NC(=O)Cc2ccnn2C)=NC(=O)c2ccc3c(c2)N(C[C@@H]2CC[C@H]21)C[C@@]1(CCCc2cc(Cl)ccc21)CO3 [Example 29]	1840
COC1CCn2cc(C(=O)N[S@@]3(=O)=NC(=O)c4ccc5c(c4)N(C[C@@H]4CC[C@H]4[C@@H](OC)/C=C/C[C@H](C)C3)C[C@@]3(CCCc4cc(Cl)ccc43)CO5)cc2C1 (stereo partly drawn) [Example 175]	33.9
CO[C@H]1/C=C/C[C@H](C)C[S@@](=O)(NC(=O)N2CC(OC(=O)N(C)C)C2)=NC(=O)c2ccc3c(c2)N(C[C@@H]2CC[C@H]21)C[C@@]1(CCCc2cc(Cl)ccc21)CO3 [Example 292]	45.1
CO[C@H]1/C=C\C[C@H](C)[C@@H](C)[S@@](=O)(NC(=O)COC2CCOCC2)=NC(=O)c2ccc3c(c2)N(C[C@@H]2CC[C@H]21)C[C@@]1(CCCc2cc(Cl)ccc21)CO3 [Example 406]	332

Same assay, conditions: Homo sapiens, SK-BR-3, 72 h, CellTiter Glo, read-out: MCL-1 CV SKBR3 EC50

Structure (SMILES)	EC50 [nM]
COc1nn(C)cc1C(=O)N[S@@]1(=O)=NC(=O)c2ccc3c(c2)N(C[C@@H]2CC[C@H]2[C@@H](OC)/C=C/C[C@H](C)C1)C[C@@]1(CCCc2cc(Cl)ccc21)CO3 [Example 154]	24.1
COc1nn(C)cc1C(=O)NS1(=O)=NC(=O)c2ccc3c(c2)N(C[C@@H]2CC[C@H]2[C@@H](OC)/C=C/C[C@H](C)C1)C[C@@]1(CCCc2cc(Cl)ccc21)CO3 (single isomer, unassigned) [Example 388]	1400
CO[C@H]1/C=C/C[C@H](C)C[S@@](=O)(NC(=O)c2cc3n(c2F)CCOC3)=NC(=O)c2ccc3c(c2)N(C[C@@H]2CC[C@H]21)C[C@@]1(CCCc2cc(Cl)ccc21)CO3 [Example 174]	103

Reference: US10988451B2, “MCL-1 inhibitors” (Gilead Sciences, Inc., priority 2018, dated 2021)
